Patent US20140179681A1, “METHODS AND COMPOSITIONS OF TARGETED DRUG DEVELOPMENT” (priority 2010, published 2014)
Counter-ions that a name gives are not always drawn. Like-named read-outs stand apart in the source and are kept apart here.

How the values were obtained:
EGFR = target: T1, EGFR (Homo sapiens, UniProt P00533); assay: EGFR in-cell Western (ICW) screening protocol (EGFR inhibition assay); assay type: cell-based; set-up: ICW 1 / ICW 2 / ICW Avg: unit not given here; settings: for ICW assay: Table 10; for ICW Avg / ICW 1 / ICW 2: ICW assay; for ICW Avg: average of runs 1 and 2; for ICW 1: run 1; for ICW 2: run 2
T1 construct: host or cells: A431
T1 sequence (P00533 25-1210): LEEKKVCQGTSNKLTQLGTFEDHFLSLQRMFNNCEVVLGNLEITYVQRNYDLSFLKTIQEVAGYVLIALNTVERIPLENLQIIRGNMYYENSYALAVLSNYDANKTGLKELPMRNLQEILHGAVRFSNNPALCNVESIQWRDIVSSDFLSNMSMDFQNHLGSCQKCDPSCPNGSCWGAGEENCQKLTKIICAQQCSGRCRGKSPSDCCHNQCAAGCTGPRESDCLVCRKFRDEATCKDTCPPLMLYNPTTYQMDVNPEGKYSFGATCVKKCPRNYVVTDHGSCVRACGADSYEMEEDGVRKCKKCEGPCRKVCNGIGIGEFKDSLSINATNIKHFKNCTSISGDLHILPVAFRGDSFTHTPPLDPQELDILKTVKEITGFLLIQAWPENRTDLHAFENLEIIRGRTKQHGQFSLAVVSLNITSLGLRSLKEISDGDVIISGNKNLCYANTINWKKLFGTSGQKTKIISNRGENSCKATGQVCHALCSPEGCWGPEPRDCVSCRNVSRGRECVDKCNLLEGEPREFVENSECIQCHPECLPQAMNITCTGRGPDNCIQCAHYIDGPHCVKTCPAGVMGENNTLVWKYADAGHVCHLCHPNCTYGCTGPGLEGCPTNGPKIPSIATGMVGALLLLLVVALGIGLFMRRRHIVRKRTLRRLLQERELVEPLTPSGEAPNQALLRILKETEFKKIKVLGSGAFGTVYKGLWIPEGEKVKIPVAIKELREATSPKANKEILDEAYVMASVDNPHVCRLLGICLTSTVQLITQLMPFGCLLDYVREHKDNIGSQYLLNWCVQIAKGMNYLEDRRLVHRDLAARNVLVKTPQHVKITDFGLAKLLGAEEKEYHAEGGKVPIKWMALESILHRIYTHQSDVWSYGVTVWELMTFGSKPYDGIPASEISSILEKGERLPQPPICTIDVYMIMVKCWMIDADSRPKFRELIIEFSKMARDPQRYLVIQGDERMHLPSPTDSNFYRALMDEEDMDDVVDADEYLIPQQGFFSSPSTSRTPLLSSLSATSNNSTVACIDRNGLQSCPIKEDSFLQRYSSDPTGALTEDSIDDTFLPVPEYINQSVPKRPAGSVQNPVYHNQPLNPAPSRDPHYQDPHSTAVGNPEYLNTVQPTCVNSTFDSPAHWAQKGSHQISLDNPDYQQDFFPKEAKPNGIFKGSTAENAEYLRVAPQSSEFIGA
Summary of the method: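 Serum-starved A431 cells (2 h) were pretreated with compound for 4 h at 37° C, then stimulated with EGF (10 ng/ml final, or 6.6 or 12.5 ng/ml in some runs) for 10 min. After formaldehyde fixation, phospho-EGFR (Tyr1173, or Tyr1045 in some runs) and total EGFR were detected by in-cell Western immunostaining.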

[1] = test system: epithelial carcinoma A431 cell line; assay: MTT Cell Proliferation Assay, A431 cells; assay type: cell-based; settings: for MTT Assay IC50(A431/MDBK): ratio in parentheses: ratio MDBK IC50 / A431 IC50 (selectivity)
Summary of the method: (§1)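 Viability was measured by mitochondrial MTT reduction after cells were exposed to compound for 3 days in reduced-serum medium. Inhibition was calculated per plate against 0.5% DMSO controls.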

MDBK line = assay: MTT Cell Proliferation Assay, MDBK cells; assay type: cell-based, bovine
Summary of the method: as §1

[2] = Homo sapiens, A-431, first value of 'a/b (c)', taken as A431 cells, read-out: MTT Screen, first value of cell
[3] = Bos taurus, MDBK, second value of 'a/b (c)', taken as MDBK cells, read-out: MTT Screen, second value of cell
[4] = % Inhibition of EGF dependent EGFR phosphorylation in A431 cells, compound 125 μM in assay
[5] = Homo sapiens, A-431, 72 h, Table 10, first of x/y(ratio): A431, three day treatment, unit not printed (doses in μM), read-out: MTT assay (first value)
[6] = Bos taurus, MDBK, 72 h, Table 10, second of x/y(ratio): MDBK, three day treatment, unit not printed (doses in μM), read-out: MTT assay (second value)
[7] = Homo sapiens, A-431, A431 cells, first value of cell, read-out: MTT Assay IC50(A431/MDBK): A431
[8] = Bos taurus, MDBK, MDBK cells, second value of cell, read-out: MTT Assay IC50(A431/MDBK): MDBK
[9] = A431 cells, first value of cell, read-out: MTT Assay IC50(A431/MDBK): A431
[10] = MDBK cells, second value of cell, read-out: MTT Assay IC50(A431/MDBK): MDBK

Row | Structure (SMILES) | ICW Avg (EGFR) | ICW 1 (EGFR) | ICW 2 (EGFR) | IC50 [1, 7] | MTT Assay IC50(A431/MDBK): ratio in parentheses [1] | IC50 (MDBK line; [8]) | further results
1 | COc1cc(NS(=O)(=O)c2ccc(NC(=S)NC(=O)/C=C/c3ccco3)cc2)ncn1 [AD4-11870] |  |  |  |  |  |  | ICW Screen (ICW Inhibition) (EGFR): 30.849; IC50 [1, 2]: 55.1 µM; IC50 (MDBK line; [3]): 47.3 µM
2 | CC1CCc2cc(F)ccc2N1S(=O)(=O)c1ccc(NC(=S)Nc2cccc(Cl)c2Cl)cc1 (centres unmarked) [AD4-12853] |  |  |  |  |  |  | ICW assay (EGFR; [4]): 36.92; IC50 [1, 5]: 8.76 µM; IC50 (MDBK line; [6]): 7.51 µM
3 | O=c1cc(CN2CCN(Cc3ccccc3)CC2)c2cc3c(cc2o1)OCO3 [AD4-10639] |  |  |  |  |  |  | ICW Screen (EGFR; Table 11, % Inhibition of EGF dependent EGFR phosphorylation in A431 cells, compound 125 μM in assay): 43.695; IC50 ([1]; Homo sapiens, A-431, 72 h, Table 11, first of x/y(ratio): A431, unit not printed (doses in μM), read-out: MTT Screen (first value)): 42.6 µM; MTT Screen (second value) (MDBK line; Table 11, second of x/y(ratio): MDBK, unit not printed (doses in μM)): non-convergent
4 | CN1CCN(S(=O)(=O)c2ccc(NC(=S)NC(=O)/C=C/c3ccccc3Cl)cc2)CC1 [AD4-12059] |  |  |  |  |  |  | ICW Screen (ICW Inhibition) (EGFR): 28.33; IC50 [1, 2]: 32.2 µM; IC50 (MDBK line; [3]): 37.7 µM
5 | C=CCc1c(C)nc(Nc2nc(C)c3cccc(OC)c3n2)[nH]c1=O [compound 12746] | 32.65 | 18.02 | 47.28 | 17.9 µM | 0.67 | 11.9 µM | 
6 | CCCc1c(-c2ccccc2)nc(Nc2nc(C)c3ccccc3n2)[nH]c1=O [compound 12609] | 41.04 | 42.02 | 40.07 | 11.2 µM | 2.10 | 23.5 µM | 
7 | CCCCc1c(C)nc(Nc2nc(C)c3ccccc3n2)[nH]c1=O [12603 + TFA] | 38.61 | 48.06 | 29.15 |  | 0.62 | 10.1 µM | IC50 [1, 9]: 16.2 µM
8 | CCc1c(C)[nH]c(Nc2nc(C)c3cc(C)c(C)cc3n2)nc1=O [11809 + TFA] | 32.72 | 31.42 | 34.02 | 39.3 µM | 0.28 | 10.9 µM | 
9 | Cc1ccc2c(C)nc(Nc3nc(-c4ccccc4)cc(=O)[nH]3)nc2c1 [10381 + TFA] | 82.76 | 87.04 | 78.48 | 2.1 µM | 1.43 | 3.01 µM | 
10 | Cc1cc(C)cc(NC(=S)Nc2ccc(S(=O)(=O)Nc3ccc(Cl)cc3)cc2)c1 [AD4-12512] |  |  |  |  |  |  | ICW assay (EGFR; [4]): 28.9126; IC50 [1, 5]: 6.4 µM; IC50 (MDBK line; [6]): 5.83 µM
11 | COc1ccc(/C=C/C(=O)NC(=S)Nc2ccc(S(=O)(=O)Nc3nc(C)cc(C)n3)cc2)cc1 [AD4-11646] |  |  |  |  |  |  | ICW Screen (ICW Inhibition) (EGFR): 37.949; IC50 [1, 2]: 19.4 µM; IC50 (MDBK line; [3]): 21.1 µM
12 | C=CCc1c(C)nc(Nc2nc(C)c3cccc(C)c3n2)[nH]c1=O [12607 + TFA] | 32.62 | 38.40 | 26.85 | 16.6 µM | 0.71 | 11.8 µM | 
13 | C=CCc1c(C)nc(Nc2nc(C)c3cc(CC)ccc3n2)[nH]c1=O [compound 12739] | 34.03 | 28.51 | 39.54 | 15.9 µM | 0.58 | 9.17 µM | 
14 | O=c1[nH]c(Nc2nc(-c3ccccc3)c3cc(Cl)ccc3n2)nc2ccccc12 [11706 + TFA] | 34.32 | 37.65 | 30.99 | 17.6 µM | 1.45 | 25.4 µM | 
15 | COc1ccc(NC(=S)Nc2ccc(S(=O)(=O)Nc3c(C)cc(C)cc3C)cc2)cc1OC [AD4-11428] |  |  |  |  |  |  | ICW assay (EGFR; [4]): 29.8673; IC50 [1, 5]: 20.8 µM; IC50 (MDBK line; [6]): 15.5 µM
16 | CCc1ccc2nc(Nc3nc(=O)cc(CSc4nc5ccccc5s4)[nH]3)nc(C)c2c1 [11300 + TFA] | 25.61 | 25.11 | 26.12 | 26.3 µM | 0.30 | 7.95 µM | 
17 | COc1ccccc1NS(=O)(=O)c1ccc(NC(=S)Nc2ccc(OC)c(OC)c2)cc1 [AD4-12537] |  |  |  |  |  |  | ICW assay (EGFR; [4]): 30.7051; IC50 [1, 5]: 35.4 µM; IC50 (MDBK line; [6]): 38.6 µM
18 | CCc1c(C)nc(Nc2nc(C)c3ccc(C)cc3n2)[nH]c1=O [12665 + TFA] | 44.17 | 51.06 | 37.29 |  | 0.98 |  | IC50 [1, 9]: 17.5 µM; IC50 (MDBK line; [10]): 17.2 µM
19 | COc1ccc(CC(=O)NC(=S)Nc2ccc(S(=O)(=O)Nc3nc(C)cc(C)n3)cc2)cc1 [AD4-12266] |  |  |  |  |  |  | ICW Screen (ICW Inhibition) (EGFR): 29.289; IC50 [1, 2]: 49.6 µM; IC50 (MDBK line; [3]): 45.9 µM
20 | CCOC(=O)c1c(N)nc(Nc2nc(C)c3cc(C)ccc3n2)nc1-c1ccccc1 [compound 11812] | 56.84 | 51.90 | 61.77 | 14.7 µM |  | 31.6 µM | 
21 | COc1cccc(-c2cc(=O)[nH]c(Nc3nc(C)c4cccc(C)c4n3)n2)c1 [compound 11474] | 40.45 | 32.19 | 48.71 | 3.57 µM | 7.98 | 28.5 µM | 
22 | COC(=O)Cc1cc(=O)nc(Nc2nc(C)c3ccccc3n2)[nH]1 [compound 11609] | 27.23 | 28.83 | 25.63 | 36 µM | 0.68 | 24.3 µM | 
23 | CCCc1c[nH]c(Nc2nc(C)c3ccccc3n2)nc1=O [compound 12622] | 26.32 | 21.30 | 31.34 | 20.8 µM | 0.55 | 11.5 µM | 
24 | CC(C)CC(=O)NC(=S)Nc1ccc(S(=O)(=O)Nc2ccccc2)cc1 [AD4-11975] |  |  |  |  |  |  | ICW Screen (ICW Inhibition) (EGFR): 75.826; IC50 [1, 2]: 17.5 µM; IC50 (MDBK line; [3]): 17.2 µM
25 | O=S(=O)(Nc1ccccc1)c1ccc(NC(=S)Nc2cccc(C(F)(F)F)c2)cc1 [AD4-12835] |  |  |  |  |  |  | ICW assay (EGFR; [4]): 116.579; IC50 [1, 5]: 6.15 µM; IC50 (MDBK line; [6]): 5.89 µM
26 | CCc1nnc(NS(=O)(=O)c2ccc(NC(=S)NC(=O)/C=C/c3cccs3)cc2)s1 [AD4-11880] |  |  |  |  |  |  | ICW Screen (ICW Inhibition) (EGFR): 37.604; IC50 [1, 2]: 47.3 µM; IC50 (MDBK line; [3]): 47.3 µM
27 | CCCc1c(-c2ccccc2)nc(Nc2nc(C)c3ccccc3n2)[nH]c1=O [compound 12732] | 82.77 | 79.12 | 86.41 |  | 1.35 |  | IC50 [1, 9]: 11.1 µM; IC50 (MDBK line; [10]): 15 µM
28 | Cc1ccc(-c2cc(=O)[nH]c(Nc3nc(C)c4ccc(C)cc4n3)n2)cc1 [12604 + TFA] | 50.98 | 55.87 | 46.08 | 19.3 µM | 1.55 | 30 µM | 
